Assays:
Format in all cases: in vivo
[1] = tested on: brown plant hopper (Nilaparvata lugens); assay: Nilaparvata lugens test, open land (spray treatment); details: 300 g/ha, spray on rice plants
Experimental: (§1) To prepare a suitable active compound preparation 1 part by weight of the active compound is mixed with the given amount of water to the desired concentration.
Rice plants (Oryza sativa) that are infested with all stages of the brown plant hopper (Nilaparvata lugens) are sprayed with an active compound preparation at the desired concentration.
After the desired time the death rate in % is determined. Here 100% means that all plant hoppers were killed; 0% means that no plant hoppers were killed.

[2] = tested on: mealy cabbage aphid (Brevicoryne brassicae); assay: Brevicoryne brassicae test, open land (drench application); details: 0.04 g/plant, drench on cabbage plants
Experimental: as §1
Cabbage plants (Brassica oleracea) that are infested with all stages of the mealy cabbage aphid (Brevicoryne brassicae) are drenched with an active compound preparation at the desired concentration.
(§2) After the desired time the death rate in % is determined. Here 100% means that all aphids were killed; 0% means that no aphids were killed.

[3] = tested on: horse chestnut scale (Pulvinaria regalis); assay: Pulvinaria regalis test, spraying of chestnut trees (Example B1); details: 100 ppm, spray on chestnut trees
Experimental: (§3) To prepare a suitable active compound preparation 1 part by weight of the active compound is mixed with the given amount of solvent and emulsifier and the concentrate is diluted to the desired concentration with water containing emulsifier.
Chestnut trees (Castaney vesca) that are infested with horse chestnut scale (Pulvinaria regalis) are treated by spraying with the active compound preparation at the desired concentration.
After the desired time the death rate in % is determined. Here 100% means that all animals were killed; 0% means that no animals were killed.

[4] = tested on: larvae of the corn root worm (Diabrotica balteata); assay: Diabrotica balteata larvae test (soil application); details: 8 ppm in soil, maize
Experimental: (§4) To prepare a suitable active compound preparation 1 part by weight of the active compound is mixed with the given amount of solvent and emulsifier and the concentrate is diluted to the desired concentration with water.
The active compound mixture was mixed with soil. The concentration given refers to amount of active compound per volume unit of earth (mg/l=ppm). Pots are filled with the treated earth and planted with 5 maize seeds per pot. 3 days after seeding larvae of the corn root worm (Diabrotica balteata) were placed in the treated soil.
After the desired time the death rate in % is determined. The level of activity is determined by the number of emerging plants

[5] = tested on: adults of the Colorado beetle (Leptinotarsa decemlineata); assay: Leptinotarsa decemlineata adults test; details: 60 g/ha, spray on potato leaves
Experimental: as §3
Leaves of potato plant (Solanum tuberosum) that are infested with adults of the Colorado beetle, (Leptinotarsa decemlineata) are treated by spraying with the active compound at the desired concentration.
After the desired time the activity in % is determined. Here 100% means that all beetles were killed; 0% means that no beetles were killed.

[6] = tested on: onion thrips (Thrips tabaci); assay: Thrips tabaci test, open land (spray treatment); details: 300 g/ha, spray on onions
Experimental: as §1
Onions (Allium cepa) that are infested with all stages of the onion thrips (Thrips tabaci) are sprayed with an active compound preparation at the desired concentration.
After the desired time the death rate in % is determined. Here 100% means that all thrips were killed; 0% means that no thrips were killed.

[7] = tested on: white fly (Bemisia tabaci) eggs and larvae; assay: Bemisia tabaci test, treated soil (Example Z); details: 4 ppm in soil, cotton plant
Experimental: as §4
The active compound preparation is mixed with earth. The concentration given relates to the amount of active compound per volume unit soil (mg/l=ppm). The treated earth is filled into pots and planted with a cotton plant (Gossypium hirsutum). After a week infection is carried out with white fly (Bemisia tabaci) for egg deposition.
After the desired time the death rate of eggs and larvae, respectively, in % is determined. Here 100% means that all animals were killed; 0% means that no animals that were killed.

[8] = tested on: codling moth larvae (Cydia pomonella); assay: Cydia pomonella test, treated feed; details: 20 ppm in feed
Experimental: as §4
The active compound preparation was mixed with feed. The concentration given relates to the amount of active compound per unit volume feed (mg/l=ppm). The treated feed is placed in Petri dishes and infected with codling moth larvae (Cydia pomonella).
After the desired time the death rate in % is determined. Here 100% means that all larvae were killed; 0% means that no larvae were killed.

[9] = tested on: white fly (Bemisia tabaci), all stages; assay: Bemisia tabaci test, open land (spray treatment); details: 300 g/ha, spray on paprika plants
Experimental: as §1
Paprika plants (Capsicum annuum) that are infested with all stages of the white fly (Bemisia tabaci) are sprayed with an active compound preparation at the desired concentration.
After the desired time the death rate in % is determined. Here 100% means that all white fly were killed; 0% means that no white fly were killed.

[10] = tested on: termites (Odontotermes sp.); assay: Odontotermes test, open land (spray treatment); details: 240 g/ha, spray on obeche wood
Experimental: as §1
Areas of wood of the obeche tree (Triplochiton scleroxylon) are treated by spraying with the active compound preparation at the desired concentration and infected with termites (Odontotermes sp.).
After the desired time the activity in % is determined. Here 100% means that the wood was not infested by termites; 0% means that the wood was infested by termites.

[11] = tested on: mealy cabbage aphid (Brevicoryne brassicae); assay: Brevicoryne brassicae test, open land (spray treatment), Example M1; details: 300 g/ha, spray on cabbage plants
Experimental: as §1
(§5) Cabbage plants (Brassica oleracea) that are infested with all stages of the mealy cabbage aphid (Brevicoryne brassicae) are sprayed with an active compound preparation at the desired concentration.
After the desired time the death rate in % is determined. Here 100% means that all nymphs were killed; 0% means that no nymphs were killed.

[12] = tested on: cotton aphid (Aphis gossypii); assay: Aphis gossypii test (soil application); details: 4 ppm in soil, cotton plant
Experimental: as §4
The active compound mixture was mixed with soil. The concentration given refers to amount of active compound per volume unit of soil (mg/l=ppm). Pots are filled with the treated earth and planted with a cotton plant (Gossypium hirsutum). After one week the plants are infected with the cotton aphid (Aphis gossypii).
as §2

[13] = tested on: green leaf hopper (Nephotettix sp.); assay: Nephotettix sp. test, open land (spray treatment); details: 300 g/ha, spray on rice plants
Experimental: as §1
Rice plants (Oryza sativa) that are infested with all stages of the green leaf hopper (Nephotettix sp.) are sprayed with an active compound preparation at the desired concentration.
After the desired time the death rate in % is determined. Here 100% means that all leaf hoppers were killed; 0% means that no leaf hoppers were killed.

[14] = tested on: mealy cabbage aphid (Brevicoryne brassicae); assay: Brevicoryne brassicae test, open land (spray treatment), Example J1; details: 300 g/ha, spray on cabbage plants
Experimental: as §1, §5, §2

[15] = tested on: cotton aphid (Aphis gossypii); assay: Aphis gossypii test (seed application); details: 4 g ai/ha, cotton seed treatment
Experimental: as §4
Cotton seeds (Gossypium hirsutum) are treated with the active compound preparation and sown into soil. After ca. 2 week the cotton plants are infected with the cotton aphid (Aphis gossypii). After the desired time the death rate in % is determined. Here 100% means that all aphids were killed; 0% means that no aphids were killed.

[16] = tested on: mixed thrips population (Frankliniella occidentalis); assay: Frankliniella occidentalis test, spraying of cotton plants; details: 100 ppm, spray on cotton plants
Experimental: as §3
Cotton plants (Gossypium hirsutum) are treated by spraying with the active compound preparation at the desired concentration and infected with a mixed thrips population (Frankliniella occidentalis).
After the desired time the activity in % is determined. Here 100% means that all thrips were killed; 0% means that no thrips were killed.

SMILES | death rate after 14 days [1] [%] | death rate after 35 days [2] [%] | death rate after 30 days [3] [%] | Activity in % after 4 d [4] [%] | activity after 7 days [5] [%] | death rate after 14 days [6] [%] | death rate after 14 days [7] [%] | death rate after 7 days [8] [%] | death rate after 65 days [9] [%] | activity after 45 days ([10]; after 45 days) [%] | death rate after 28 days [11] [%] | Activity in % after 7 d [12] [%] | death rate after 15 days [13] [%] | death rate after 22 days [14] [%] | Activity in % after 7 d [15] [%] | Activity in % after 14 d [16] [%] | activity after 65 days ([10]; after 65 days) [%]
CN(Cc1ccc(Cl)nc1)C1=CC(=O)OC1 [Compound 84] | 91 | 100 | 100 | 100 | 100 | 89 | 100 | 100 | 93 | 99 | 96 | 100 | 98 | 99 | 100 | 99 | –
O=C1C=C(N(Cc2ccc(Cl)nc2)C2CC2)CO1 [Compound 88] | 99 | 97 | 95 | 90 | 100 | 98 | 100 | 90 | 93 | – | 99 | 100 | 99 | 99 | 100 | 99 | 95
